Data published in patent publication US5607926A, “Cephalosporin antibiotics” (Microcide Pharmaceuticals, Inc., priority 1995, dated 1997).
Values after ≈ are worked out from the molar mass of the structure shown. Counter-ions that a name gives are not always drawn. Like-named read-outs stand apart in the source and are kept apart here.

What was measured:
Assay type in all cases: cell-based
[1] = tested on: S. epidermidis ATCC 31432; assay: In vitro antibacterial evaluation, MIC by agar dilution, S. epidermidis ATCC 31432; conditions: Staphylococcus epidermidis, ATCC31432
How it was run: (§1)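 Log-phase cultures (4-6 h broth growth) are adjusted to 0.5 McFarland and diluted to give roughly 10^4 cfu per 1 μL spot. Spots go onto Mueller-Hinton agar containing test compound in two-fold dilutions (128 to ≤0.25 μg/mL), then plates incubate 16-20 hours at 35°-36° C before MIC reading.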

[2] = tested on: S. aureus Col8A (Meth^S)(lac^-); assay: In vitro antibacterial evaluation, MIC by agar dilution, S. aureus Col8A; conditions: Staphylococcus aureus
How it was run: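 Log-phase isolates were spot-inoculated at about 10^4 cfu onto Mueller-Hinton agar carrying duplicate two-fold compound levels, 128 μg/mL to ≤0.25 μg/mL, following NCCLS (1991). Plates were read after 16-20 h at 35°-36° C. The lowest growth-inhibiting concentration gave the MIC (μg/ml).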

[3] = tested on: P. aeruginosa ATCC 27853; assay: In vitro antibacterial evaluation, MIC by agar dilution, P. aeruginosa ATCC 27853; conditions: Pseudomonas aeruginosa, ATCC27853, read-out: MIC
How it was run: as §1

[4] = tested on: S. aureus 76 (Meth^R)(lac^+); assay: In vitro antibacterial evaluation, MIC by agar dilution, S. aureus 76; conditions: Staphylococcus aureus, read-out: MIC
How it was run: as §1

[5] = tested on: E. faecium ATCC 35667; assay: In vitro antibacterial evaluation, MIC by agar dilution, E. faecium ATCC 35667; conditions: Enterococcus faecium, ATCC35667, read-out: MIC
How it was run: as §1

[6] = tested on: E. faecalis ATCC 29212; assay: In vitro antibacterial evaluation, MIC by agar dilution, E. faecalis ATCC 29212; conditions: Enterococcus faecalis, ATCC29212; E. faecalis ATCC 29212; read-out: MIC
How it was run: as §1

[7] = tested on: S. aureus ATCC 25923; assay: In vitro antibacterial evaluation, MIC by agar dilution, S. aureus ATCC 25923; conditions: Staphylococcus aureus, ATCC25923
Method: The compounds of the invention were evaluated against several β-lactamresistant bacteria strains by determining the minimum inhibitory concentration (MIC, μg/ml) of each compound with respect to each strain. The MIC, the lowest concentration of antibiotic which inhibits growth of the test organism, was determined by the agar dilution method.
To determine the MIC for bacterial isolates, the test compound was incorporated in a series of two-fold dilutions into liquified Mueller-Hinton agar. Upon solidification, a number of different bacterial strains were spot inoculated with a replicating device onto the agar surface. […] The procedures used in these studies have been standardized by the National Committee for Clinical Laboratory Standards (NCCLS), as per the NCCLS publication entitled METHODS FOR DILUTION ANTIMICROBIAL SUSCEPTIBILITY TESTS (1991), which is incorporated herein by reference.
Aliquots of antimicrobial agents were prepared in phosphate buffered saline (PBS) at pH 7.2. Tween 20 or DMSO was used as a solubilizing vehicle as needed. Standard methods of vortexing, sonicating and gentle heat were used to facilitate solubilizing the test agent. Typically, the concentration of the stock solution was 10× that of the highest drug concentration tested. A 1.28 mg/mL stock solution was used with a subsequent highest working concentration of 128 μg/mL. Serial two-fold dilutions were done through ≤0.25 μg/mL. Each drug level was tested in duplicate. Two-fold drug dilutions were done in sterile 50 mL tubes with a final drug volume of 5 mL. Upon the addition of 45 mL of molten agar, a 10-fold dilution resulted. Two, 25 mL. plates were then poured into 15×150 mm square Petri plates with grids and allowed to harden.
A control plate with a reference drug, either cefotaxime, vancomycin or imipenem, was used as the positive growth control. Stock concentrations of reference antibiotics were prepared and frozen at -80° C. Upon preparation, the control plates were sealed and stored in the refrigerator for up to 1 week prior to use; however, imipenem control plates had to be prepared just prior to use. All test plates were used within 24 hours of preparation.
Satisfactory results were obtained where the inoculum contained about 10^4 colony forming units (cfu) ±0.5 logs. Starting with pure cultures of the test isolates on agar plates, a few isolated colonies were transferred to a tube of nutrient broth and allowed to grow 4-6 hours at 35°-36° C. to reach log-phase growth. Dropwise addition of the broth culture to PBS was done to match a 0.5 McFarland turbidity standard equal to 10^8 cfu/mL. This was further diluted ten-fold in PBS to reach a working inoculum concentration of 10^7 cfu/mL. When 1 μL of the working inoculum was applied to the agar surface a concentration of about 10^4 cfu per spot was obtained.
Disposable sterile 1 μL loops were used to inoculate test plates, with each isolate in a designated grid on the agar plate. An alternate method of inoculation involved the use of a replica plater, a device with 48 steel pins allowing the simultaneous inoculation of multiple isolates. After the spots had dried, the plates were incubated at 35°-36° C. for 16-20 hours. Endpoints were assessed as the minimum inhibitory concentration (MIC) of antimicrobial agent.

[8] = tested on: E. coli ATCC 25922; assay: In vitro antibacterial evaluation, MIC by agar dilution, E. coli ATCC 25922; conditions: Escherichia coli, ATCC25922, read-out: MIC
How it was run: as §1

[9] = tested on: S. haemolyticus (Meth^R); assay: In vitro antibacterial evaluation, MIC by agar dilution, S. haemolyticus; conditions: Staphylococcus haemolyticus, read-out: MIC
How it was run: as §1

[10] = tested on: S. aureus ATCC 29213; assay: In vitro antibacterial evaluation, MIC by agar dilution, S. aureus ATCC 29213; conditions: Staphylococcus aureus, ATCC29213
How it was run: as §1

[11] = S. aureus ATCC 29213, read-out: MIC

SMILES	MIC [1]	MIC [2]	MIC [3]	MIC [4]	MIC [5]	MIC [6]	MIC [7]	MIC [8]	MIC [9]	MIC [10, 11]	MIC ([1]; S. epidermidis ATCC 31432, read-out: MIC)	MIC ([7]; S. aureus ATCC 25923, read-out: MIC)	MIC [10]
N#Cc1ccc(SC2=C(C(=O)O)N3C(=O)[C@@H](NC(=O)Cc4ccccc4)[C@H]3SC2)c(C#N)c1 [Cmpd 51, (7R)-7-[(Phenylacetyl)amino]-3-(2,4-dicyanophenylthio)-3-cephem-4-carboxylic acid]	< 0.25 µg/mL	< 0.25 µg/mL	> 32 µg/mL	8 µg/mL (≈ 16.8 µM)	4 µg/mL (≈ 8.39 µM)	4 µg/mL (≈ 8.39 µM)	< 0.25 µg/mL	> 32 µg/mL	32 µg/mL (≈ 67.2 µM)	0.5 µg/mL (≈ 1.05 µM)	–	–	–
N#CCC(=O)N[C@@H]1C(=O)N2C(C(=O)O)=C(Sc3ccccc3C#N)CS[C@H]12 [Cmpd 52, (7R)-7-[(Cyanoacetyl)amino]-3-(2-cyanophenylthio)-3-cephem-4-carboxylic acid]	–	0.5 µg/mL (≈ 1.25 µM)	> 32 µg/mL	16 µg/mL (≈ 40 µM)	2 µg/mL (≈ 4.99 µM)	4 µg/mL (≈ 9.99 µM)	–	> 32 µg/mL	16 µg/mL (≈ 40 µM)	0.5 µg/mL (≈ 1.25 µM)	< 0.25 µg/mL	< 0.25 µg/mL	–
CN(C)C(SCc1ccc(SC2=C(C(=O)[O-])N3C(=O)[C@@H](NC(=O)Cc4ccccc4)[C@H]3SC2)c(I)c1)=[N+](C)C [Cmpd 62, (7R)-7-[(Phenylacetyl)amino]-3-(4-tetra-methylisothiouroniummethyl-2-iodophenylthio)-3-cephem-4-carboxylate, inner salt]	< 0.25 µg/mL	< 0.25 µg/mL	> 32 µg/mL	16 µg/mL	4 µg/mL	2 µg/mL	< 0.25 µg/mL	> 32 µg/mL	32 µg/mL	–	–	–	–
N=C(N)SCc1ccc(SC2=C(C(=O)O)N3C(=O)[C@@H](NC(=O)Cc4ccccc4)[C@H]3SC2)cc1 [Cmpd 63, (7R)-7-[(Phenylacetyl)amino]-3-(4-isothiouroniummethylphenylthio)-3-cephem-4-carboxylate, inner salt]	< 0.25 µg/mL	< 0.25 µg/mL	> 32 µg/mL	16 µg/mL	1 µg/mL	1 µg/mL	< 0.25 µg/mL	8 µg/mL	32 µg/mL	–	–	–	–
N=C(N)SCc1ccccc1SC1=C(C(=O)O)N2C(=O)[C@@H](NC(=O)Cc3ccccc3)[C@H]2SC1 [Cmpd 64, (7R)-7-[(Phenylacetyl)amino]-3-(2-isothiouroniummethylphenylthio)-3-cephem-4-carboxylate, inner salt]	< 0.25 µg/mL	< 0.25 µg/mL	> 32 µg/mL	4 µg/mL	0.5 µg/mL	1 µg/mL	< 0.25 µg/mL	> 32 µg/mL	8 µg/mL	–	–	–	< 0.25 µg/mL
O=C(Cc1ccccc1)N[C@@H]1C(=O)N2C(C(=O)O)=C(Sc3ccc(CSc4ncn[nH]4)cc3)CS[C@H]12 [Cmpd 65, (7R)-7-[(Phenylacetyl)amino]-3-(4-(1,2,4-triazol-5-ylthiomethyl)phenylthio)-3-cephem-4-carboxylic acid]	< 0.25 µg/mL	< 0.25 µg/mL	> 32 µg/mL	32 µg/mL (≈ 59.3 µM)	2 µg/mL (≈ 3.71 µM)	1 µg/mL (≈ 1.85 µM)	< 0.25 µg/mL	> 32 µg/mL	32 µg/mL (≈ 59.3 µM)	–	–	–	< 0.25 µg/mL
N#CCC(=O)N[C@@H]1C(=O)N2C(C(=O)O)=C(Sc3ccc(CSC(=N)N)cc3I)CS[C@H]12 [Cmpd 66, (7R)-7-[(Cyanoacetyl)amino]-3-(4-isothiouroniummethyl-2-iodophenylthio)-3-cephem-4-carboxylate, inner salt]	< 0.25 µg/mL	< 0.25 µg/mL	> 32 µg/mL	8 µg/mL	1 µg/mL	4 µg/mL	< 0.25 µg/mL	> 32 µg/mL	8 µg/mL	–	–	–	–
C[n+]1cccc(SC2=C(C(=O)[O-])N3C(=O)[C@@H](NC(=O)Cc4ccccc4)[C@H]3SC2)c1-c1ccccc1 [Cmpd 82, (7R)-7-[(Phenylacetyl)amino]-3-(2-phenyl-N-methylpyridin-3-iumthio)-3-cephem-4-carboxylate]	< 0.25 µg/mL	< 0.25 µg/mL	> 32 µg/mL	16 µg/mL (≈ 30.9 µM)	4 µg/mL (≈ 7.73 µM)	1 µg/mL (≈ 1.93 µM)	< 0.25 µg/mL	> 32 µg/mL	32 µg/mL (≈ 61.8 µM)	–	–	–	–
O=C(Cc1ccccc1)N[C@@H]1C(=O)N2C(C(=O)[O-])=C(Sc3ccc[n+](Cc4ccccc4)c3-c3ccccc3)CS[C@H]12 [Cmpd 83, (7R)-7-[(Phenylacetyl)amino]-3-(2-phenyl-N-benzylpyridin-3-iumthio)-3-cephem-4-carboxylate]	< 0.25 µg/mL	< 0.25 µg/mL	> 32 µg/mL	16 µg/mL (≈ 26.9 µM)	2 µg/mL (≈ 3.37 µM)	1 µg/mL (≈ 1.68 µM)	< 0.25 µg/mL	> 32 µg/mL	32 µg/mL (≈ 53.9 µM)	–	–	–	–
O=C(Cc1ccc(Cl)cc1)N[C@@H]1C(=O)N2C(C(=O)O)=C(Sc3cccnc3-c3ccccc3)CS[C@H]12 [Cmpd 84, (7R)-7-[(4-Chlorophenylacetyl)amino]-3-(2-phenylpyridin-3-ylthio)-3-cephem-4-carboxylic acid]	< 0.25 µg/mL	< 0.25 µg/mL	> 32 µg/mL	8 µg/mL (≈ 14.9 µM)	1 µg/mL (≈ 1.86 µM)	1 µg/mL (≈ 1.86 µM)	< 0.25 µg/mL	> 32 µg/mL	8 µg/mL (≈ 14.9 µM)	–	–	–	–
O=C(Cc1ccccc1)N[C@@H]1C(=O)N2C(C(=O)O)=C(Sc3cnnn3-c3ccccc3)CS[C@H]12 [Cmpd 91, (7R)-7-[(Phenylacetyl)amino]-3-(1-N-phenyl-1,2,3-triazol-5-ylthio)-3-cephem-4-carboxylic acid]	< 0.25 µg/mL	< 0.25 µg/mL	> 32 µg/mL	16 µg/mL (≈ 32.4 µM)	2 µg/mL (≈ 4.05 µM)	1 µg/mL (≈ 2.03 µM)	< 0.25 µg/mL	> 32 µg/mL	> 32 µg/mL	–	–	–	–
O=C(Cc1ccccc1)N[C@@H]1C(=O)N2C(C(=O)O)=C(Sc3nnnn3-c3ccccc3)CS[C@H]12 [Cmpd 94, (7R)-7-[(Phenylacetyl)amino]-3-(1-N-phenyltetrazol-5-ylthio)-3-cephem-4-carboxylic acid]	< 0.25 µg/mL	< 0.25 µg/mL	> 32 µg/mL	16 µg/mL (≈ 32.4 µM)	2 µg/mL (≈ 4.04 µM)	1 µg/mL (≈ 2.02 µM)	< 0.25 µg/mL	> 32 µg/mL	> 32 µg/mL	–	–	–	–
O=C(Cc1ccccc1)N[C@@H]1C(=O)N2C(C(=O)O)=C(Sc3ccccc3-c3cnco3)CS[C@H]12 [Cmpd 95, (7R)-7-[(Phenylacetyl)amino]-3-(2-oxazol-5-ylphenylthio)-3-cephem-4-carboxylic acid]	< 0.25 µg/mL	< 0.25 µg/mL	> 32 µg/mL	8 µg/mL (≈ 16.2 µM)	4 µg/mL (≈ 8.1 µM)	4 µg/mL (≈ 8.1 µM)	< 0.25 µg/mL	> 32 µg/mL	16 µg/mL (≈ 32.4 µM)	–	–	–	–
